Results: patent publication EP4745134A1 (Jiangsu Yahong Meditech Co., Ltd., priority 2023, dated 2025)

Key:
[1] = system: HCT116-WT cells; test: Inhibitory activity against cell proliferation (CellTiter Glo, 6 days), HCT116-WT; type: cell-based; details: 144 h, HCT116-WT cells, 6 days, CellTiter Glo; read-out: HCT116-WT IC50
Procedure, shortened: (§1)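 Luminescence read-out (CellTiter Glo, 10 min shaking at room temperature) after 6 days of compound exposure; IC50 fitted against DMSO controls. Top dose 10000 nM, 4-fold steps, 8 points; 250 cells/well in McCoy's 5A + 10% FBS.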

[2] = molecular target: PRMT5-MTA (Homo sapiens, UniProt O14744); test: Enzymatic inhibitory activity against PRMT5-MTA (AlphaScreen); type: biochemical; details: read-out: IC50
Sequence of PRMT5-MTA (O14744 whole entry): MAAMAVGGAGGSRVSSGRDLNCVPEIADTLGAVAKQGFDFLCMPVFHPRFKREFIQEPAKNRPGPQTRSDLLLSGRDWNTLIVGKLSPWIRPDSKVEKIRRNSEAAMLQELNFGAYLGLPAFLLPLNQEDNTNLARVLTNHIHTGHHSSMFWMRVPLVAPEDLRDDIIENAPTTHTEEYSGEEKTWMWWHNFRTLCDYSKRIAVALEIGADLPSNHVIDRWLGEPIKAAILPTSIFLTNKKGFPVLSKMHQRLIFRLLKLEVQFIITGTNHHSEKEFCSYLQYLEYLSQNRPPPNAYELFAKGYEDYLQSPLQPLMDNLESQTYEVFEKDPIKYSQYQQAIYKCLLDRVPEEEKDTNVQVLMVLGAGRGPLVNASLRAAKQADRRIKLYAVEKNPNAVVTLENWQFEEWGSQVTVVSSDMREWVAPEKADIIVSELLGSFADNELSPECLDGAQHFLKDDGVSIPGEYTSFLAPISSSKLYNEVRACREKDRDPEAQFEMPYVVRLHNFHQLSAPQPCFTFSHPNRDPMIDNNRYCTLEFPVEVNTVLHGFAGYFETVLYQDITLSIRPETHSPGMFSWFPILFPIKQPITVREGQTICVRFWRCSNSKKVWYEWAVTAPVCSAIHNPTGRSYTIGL
Sequence of PRMT5-MTA (Q9BQA1 whole entry partner): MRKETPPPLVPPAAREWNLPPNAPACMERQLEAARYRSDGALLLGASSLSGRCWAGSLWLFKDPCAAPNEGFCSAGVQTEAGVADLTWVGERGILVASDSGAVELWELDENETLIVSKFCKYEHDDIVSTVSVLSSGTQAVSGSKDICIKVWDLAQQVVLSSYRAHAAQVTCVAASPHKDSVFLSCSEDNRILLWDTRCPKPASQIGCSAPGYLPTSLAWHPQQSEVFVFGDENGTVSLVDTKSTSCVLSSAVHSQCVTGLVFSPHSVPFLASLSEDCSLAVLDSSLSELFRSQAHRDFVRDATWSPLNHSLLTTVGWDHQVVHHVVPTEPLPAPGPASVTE
Procedure, shortened: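 PRMT5/[…] (1 nM) was preincubated for 30 min at room temperature with 1 µM […] and 2.5 µM SAM, then exposed to compound (10-point, 3-fold from 1000 nM) for 15 min at 23 °C. Histone H4 substrate (5 nM) was added and reacted for 45 min at 23 °C. Symmetric dimethyl-R3 H4 was detected by AlphaScreen and IC50 calculated.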

[3] = system: HCT116 MTAP KO cells; test: Inhibitory activity against cell proliferation (CellTiter Glo, 6 days), HCT116 MTAP KO; type: cell-based; details: for IC50: Homo sapiens, HCT-116, 144 h, HCT116 MTAP KO cells, 6 days, CellTiter Glo, read-out: HCT116 MTAP KO IC50; for Selectivity HCT 116-WT/ HCT116 MTAP KO: ratio of IC50 HCT116-WT / HCT116 MTAP KO
Procedure, shortened: as §1

Structure (SMILES)	IC50 [1]	IC50 [2]	IC50 [3]	Selectivity HCT 116-WT/ HCT116 MTAP KO [3]
Cc1cc2cc(C(=O)N(Cc3ccc(C4CC4)cn3)N(C)c3ncccc3C(F)(F)F)ccc2nc1N [Example 196, 2-amino-N-((5-cyclopropylpyridin-2-yl)methyl)-N',3-dimethyl-N'-(3-(trifluoromethyl)pyridin-2-yl)quinoline-6-carbohydrazide]	441 nM	5.7 nM	34 nM	12.97
Cc1cc2cc(C(=O)N(Cc3ccc(-c4cnc5ccccc5c4)cn3)N(C)c3ncccn3)ccc2nc1N [Example 197, 2-amino-N',3-dimethyl-N'-(pyrimidin-2-yl)-N-((5-(quinolin-3-yl)pyridin-2-yl)methyl)quinoline-6-carbohydrazide]	645 nM	1.1 nM	34 nM	18.97
COc1cc(-c2ccc(CN(C(=O)c3ccc4nc(N)c(C)cc4c3)N(C)c3ncccn3)nc2)cnc1F [Example 199, 2-amino-N-((6'-fluoro-5'-methoxy-[3,3'-bipyridine]-6-yl)methyl)-N',3-dimethyl-N'-(pyrimidin-2-yl)quinoline-6-carbohydrazide]	1960 nM	2.5 nM	106 nM	18.53
Cc1cc2cc(C(=O)N(Cc3ccc(-c4cn[nH]c4)cn3)N(C)c3ncccn3)ccc2nc1N [Example 200, N-((5-(1H-pyrazol-4-yl)pyridin-2-yl)methyl)-2-amino-N',3-dimethyl-N'-(pyrimidin-2-yl)quinoline-6-carbohydrazide]	1240 nM	1.7 nM	36 nM	34.36
Cc1cc2cc(C(=O)N(Cc3ccc(-c4ccsc4)cn3)N(C)c3ncccn3)ccc2nc1N [Example 201, 2-amino-N',3-dimethyl-N'-(pyrimidin-2-y 1)-N-((5-(thien-3-yl)pyridin-2-yl)methyl) quinoline-6-carbohydrazide]	1240 nM	2.1 nM	51 nM	24.25
Cc1cc2cc(C(=O)N(Cc3ccc(-c4ccccc4)cn3)N(C)c3ncccn3)ccc2nc1N [Example 202, 2-amino-N',3-dimethyl-N-((5-phenylpyridin-2-yl)methyl)-N'-(pyrimidin-2-yl)quin oline-6-carbohydrazide]	1060 nM	2.9 nM	74 nM	14.26
Cc1cc2cc(C(=O)N(Cc3ccc(-c4cnn(C(C)C)c4)cn3)N(C)c3ncccn3)ccc2nc1N [Example 203, 2-amino-N-((5-(1-isopropyl-1H-pyrazol-4-yl)pyridin-2-yl)methyl)-N',3-dimethyl-N'-(pyrimidin-2-yl)quinoline-6-carbohydrazide]	1030 nM	1.8 nM	40 nM	25.65
Cc1cc2cc(C(=O)N(Cc3ccc(-c4ccc(N5CCCC5)nc4)cn3)N(C)c3ncccn3)ccc2nc1N [Example 211, 2-amino-N',3-dimethyl-N'-(pyrimidin-2-yl)-N-((6'-(pyrrolidin-1-yl)-[3,3'-bipyridine]-6-yl)methyl)quinoline-6-carbohydrazide]	1590 nM	2.3 nM	84 nM	18.96
Cc1cc2cc(C(=O)N(Cc3ccc(-c4cncs4)cn3)N(c3ncccn3)C3CC3)ccc2nc1N [Example 215, 2-amino-N'-cyclopropyl-3-methyl-N'-(pyrimidin-2-yl)-N-((5-(thiazol-5-yl)pyridin-2-yl)methyl)quinoline-6-carbohydrazide]	178 nM	5.3 nM	7.1 nM	25.07
Cc1cc2cc(C(=O)N(Cc3ccc(-c4cnn(C(F)(F)F)c4)cn3)N(c3ncccn3)C3CC3)ccc2nc1N [Example 216, 2-amino-N'-cyclopropyl-3-methyl-N'-(pyrimidin-2-yl)-N-((5-(1-(trifluoromethyl)-1H-pyrazol-4-yl)pyridin-2-yl)methyl)qui noline-6-carbohydrazide]	627 nM	3.3 nM	23 nM	27.26
